ChEMBL document CHEMBL5335794, “Discovery of novel multifunctional ligands targeting GABA transporters, butyrylcholinesterase, β-secretase, and amyloid β aggregation as potential treatment of Alzheimer's disease” (Eur J Med Chem, 2023)
Calls of active or inactive are those of the source. No cut-off for these calls is given here.

Assays:
HepG2 = experiment: Cytotoxicity against human HepG2 cells assessed as reduction in cell viability at 0.1 to 1 uM incubated for 72 hrs by MTS assay; format: toxicity, cell-based; settings: hepg2, 72 h, dose 0.1-1 µM
[1] = biological target: Amyloid-beta precursor protein (Homo sapiens) (UniProt P05067); experiment: Inhibition of soluble amyloid beta40 (unknown origin) aggregation assessed as elongation constant at 10 uM measured after 24 hrs by ThT fluorescence based assay (reference value: […] /M/min)
Chain of Amyloid-beta precursor protein (Homo sapiens) (P05067 whole entry): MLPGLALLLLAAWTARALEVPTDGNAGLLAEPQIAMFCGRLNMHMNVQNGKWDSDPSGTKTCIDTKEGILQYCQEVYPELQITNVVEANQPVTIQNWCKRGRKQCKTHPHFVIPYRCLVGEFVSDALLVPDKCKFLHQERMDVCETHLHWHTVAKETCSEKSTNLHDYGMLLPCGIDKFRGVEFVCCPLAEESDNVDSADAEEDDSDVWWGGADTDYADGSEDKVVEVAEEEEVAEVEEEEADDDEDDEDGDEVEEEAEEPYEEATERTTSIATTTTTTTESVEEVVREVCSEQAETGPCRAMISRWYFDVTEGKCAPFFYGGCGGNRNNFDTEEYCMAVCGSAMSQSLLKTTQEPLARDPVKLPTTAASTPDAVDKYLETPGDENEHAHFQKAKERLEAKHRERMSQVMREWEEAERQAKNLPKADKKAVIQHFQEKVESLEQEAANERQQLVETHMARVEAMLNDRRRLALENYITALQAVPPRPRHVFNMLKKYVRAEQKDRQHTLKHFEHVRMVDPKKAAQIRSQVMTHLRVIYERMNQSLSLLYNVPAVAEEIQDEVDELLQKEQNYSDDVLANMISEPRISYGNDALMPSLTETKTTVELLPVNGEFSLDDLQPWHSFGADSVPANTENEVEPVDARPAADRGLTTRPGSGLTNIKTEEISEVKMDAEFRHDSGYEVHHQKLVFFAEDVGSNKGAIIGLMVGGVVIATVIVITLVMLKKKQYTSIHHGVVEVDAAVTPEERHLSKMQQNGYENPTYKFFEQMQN

Mus musculus [2] = experiment: Cognitive enhancing activity in Albino Swiss (CD-1) mouse model of scopolamine induced cognitive dysfunction and amnesia assessed as prolongation of step-through latency in acquisition phase at 10 mg/kg, ip pretreated for 30 mins followed by scopolamine administration and measured after 30 mins by passive avoidance test; format: functional, organism-based; settings: time 60.0 min
Mus musculus [3] = experiment: Cognitive enhancing activity in Albino Swiss (CD-1) mouse model of scopolamine induced cognitive dysfunction and amnesia assessed as prolongation of step-through latency in retention trail at 10 mg/kg, ip pretreated for 30 mins followed by scopolamine administration and measured after 30 mins by passive avoidance test; format: functional, organism-based; settings: time 60.0 min
GABA transporter 2 [4] = biological target: T1, GABA transporter 2 (Mus musculus, UniProt P31651); experiment: Inhibition of mouse GAT2 transfected in HEK293 cells assessed as reduction in [3H]-GABA uptake preincubated for 25 mins followed by [3H]-GABA addition and measured after 10 mins by liquid scintillation counting analysis; format: cell-based; settings: read-out: pIC50 (converted)
T1 sequence (P31651 whole entry): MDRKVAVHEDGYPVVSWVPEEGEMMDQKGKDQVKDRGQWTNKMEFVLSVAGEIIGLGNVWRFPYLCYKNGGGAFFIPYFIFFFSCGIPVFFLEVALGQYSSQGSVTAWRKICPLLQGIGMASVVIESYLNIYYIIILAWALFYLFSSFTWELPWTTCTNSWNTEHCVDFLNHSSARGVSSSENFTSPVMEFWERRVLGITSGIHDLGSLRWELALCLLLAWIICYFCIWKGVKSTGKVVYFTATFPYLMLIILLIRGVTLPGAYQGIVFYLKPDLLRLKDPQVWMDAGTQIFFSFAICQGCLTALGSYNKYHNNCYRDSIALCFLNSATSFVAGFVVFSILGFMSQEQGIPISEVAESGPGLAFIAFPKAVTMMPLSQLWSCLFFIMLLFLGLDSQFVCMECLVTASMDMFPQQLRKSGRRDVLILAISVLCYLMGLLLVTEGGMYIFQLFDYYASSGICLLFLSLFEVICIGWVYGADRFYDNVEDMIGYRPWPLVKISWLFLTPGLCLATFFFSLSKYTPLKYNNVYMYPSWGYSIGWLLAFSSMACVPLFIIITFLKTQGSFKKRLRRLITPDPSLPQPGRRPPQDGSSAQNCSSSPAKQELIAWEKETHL

[5] = biological target: Amyloid-beta precursor protein (Homo sapiens) (UniProt P05067); experiment: Inhibition of soluble amyloid beta40 (unknown origin) aggregation assessed as nucleation constant at 10 uM measured after 24 hrs by ThT fluorescence based assay (reference value: […] 10^-4/min)
[6] = biological target: T2, Sodium- and chloride-dependent GABA transporter 1 (Mus musculus, UniProt P31648); experiment: Inhibition of mouse GAT1 transfected in HEK293 cells assessed as reduction in [3H]-GABA uptake preincubated for 25 mins followed by [3H]-GABA addition and measured after 4 mins by liquid scintillation counting analysis; format: cell-based; settings: read-out: pIC50 (converted)
[7] = biological target: Amyloid-beta precursor protein (Homo sapiens) (UniProt P05067); experiment: Inhibition of amyloid beta40 (unknown origin) aggregation at 10 uM measured every 5 mins by ThT fluorescence based assay relative to control
HEK293 [8] = experiment: Cytotoxicity against HEK293 cells assessed as reduction in cell viability at 0.1 to 1 uM incubated for 72 hrs by MTS assay; format: toxicity, cell-based; settings: human, hek293, 72 h, dose 0.1-1 µM
[9] = biological target: Cholinesterase (Equus caballus) (UniProt P81908); experiment: Mixed type inhibition of equine serum BuChE using varying concentrations of butyrylthiocholine iodide as substrate preincubated for 5 mins followed by substrate addition and measured after 5 mins by Ellman's method based Lineweaver-Burk plot analysis; settings: time 10.0 min
Chain of Cholinesterase (Equus caballus) (P81908 whole entry): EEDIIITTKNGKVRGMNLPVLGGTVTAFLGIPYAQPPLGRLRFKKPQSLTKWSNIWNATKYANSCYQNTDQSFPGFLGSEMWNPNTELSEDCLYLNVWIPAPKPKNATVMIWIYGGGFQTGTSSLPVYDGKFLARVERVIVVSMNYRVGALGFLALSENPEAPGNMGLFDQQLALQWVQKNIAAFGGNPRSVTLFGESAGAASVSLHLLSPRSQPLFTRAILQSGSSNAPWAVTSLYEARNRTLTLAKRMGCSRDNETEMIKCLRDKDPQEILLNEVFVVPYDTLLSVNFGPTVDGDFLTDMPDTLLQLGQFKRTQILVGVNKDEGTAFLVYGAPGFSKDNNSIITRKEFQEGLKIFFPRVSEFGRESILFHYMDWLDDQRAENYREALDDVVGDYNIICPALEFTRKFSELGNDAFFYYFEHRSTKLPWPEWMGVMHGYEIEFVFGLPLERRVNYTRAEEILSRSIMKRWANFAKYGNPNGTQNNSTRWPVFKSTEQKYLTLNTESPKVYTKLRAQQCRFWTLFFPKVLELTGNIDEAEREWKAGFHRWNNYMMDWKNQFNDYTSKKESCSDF

[10] = biological target: Acetylcholinesterase (Electrophorus electricus) (UniProt O42275); experiment: Inhibition of electric eel AChE using acetylthiocholine iodide as substrate at 10 uM preincubated for 5 mins followed by substrate addition and measured after 5 mins by DTNB reagent based Ellman's method relative to control; settings: time 10.0 min
Chain of Acetylcholinesterase (Electrophorus electricus) (O42275 24-633 limits assumed): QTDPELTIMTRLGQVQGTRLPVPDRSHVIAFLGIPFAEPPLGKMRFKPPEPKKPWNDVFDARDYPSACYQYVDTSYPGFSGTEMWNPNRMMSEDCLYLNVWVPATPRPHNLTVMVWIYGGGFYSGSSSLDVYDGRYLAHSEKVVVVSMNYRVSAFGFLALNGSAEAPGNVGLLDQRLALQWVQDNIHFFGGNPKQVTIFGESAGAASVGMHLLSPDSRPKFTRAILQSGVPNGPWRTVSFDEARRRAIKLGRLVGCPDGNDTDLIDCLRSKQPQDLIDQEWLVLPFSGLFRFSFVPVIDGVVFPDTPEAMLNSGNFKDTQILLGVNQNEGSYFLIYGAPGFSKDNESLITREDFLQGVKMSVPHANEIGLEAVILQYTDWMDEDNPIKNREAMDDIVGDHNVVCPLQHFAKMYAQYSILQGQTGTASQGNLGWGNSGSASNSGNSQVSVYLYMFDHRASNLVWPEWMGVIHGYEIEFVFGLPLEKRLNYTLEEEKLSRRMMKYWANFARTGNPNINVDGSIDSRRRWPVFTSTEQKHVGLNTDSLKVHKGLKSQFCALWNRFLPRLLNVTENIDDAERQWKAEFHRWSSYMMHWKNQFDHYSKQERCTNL

Mus musculus [11] = experiment: Cognitive enhancing activity in Albino Swiss (CD-1) mouse model of scopolamine induced memory deficits and amnesia assessed as increase in discrimination index at 30 mg/kg, ip pretreated for 30 mins followed by scopolamine administration and measured after 30 mins by Novel object recognition test; format: functional, organism-based; settings: time 60.0 min
[12] = biological target: Amyloid-beta precursor protein (Homo sapiens) (UniProt P05067); experiment: Inhibition of soluble amyloid beta40 (unknown origin) aggregation assessed as time of half-aggregation at 10 uM measured after 24 hrs by ThT fluorescence based assay (reference value: […] min)
[13] = biological target: Cholinesterase (Equus caballus) (UniProt P81908); experiment: Mixed type inhibition of equine serum BuChE using varying concentrations of butyrylthiocholine iodide as substrate preincubated for 5 mins followed by substrate addition and measured after 5 mins by Ellman's method based Cornish-Bowden plot analysis; settings: time 10.0 min
Beta-secretase 1 = Beta-secretase 1 (Homo sapiens, UniProt P56817)
Chain of Beta-secretase 1 (P56817 whole entry): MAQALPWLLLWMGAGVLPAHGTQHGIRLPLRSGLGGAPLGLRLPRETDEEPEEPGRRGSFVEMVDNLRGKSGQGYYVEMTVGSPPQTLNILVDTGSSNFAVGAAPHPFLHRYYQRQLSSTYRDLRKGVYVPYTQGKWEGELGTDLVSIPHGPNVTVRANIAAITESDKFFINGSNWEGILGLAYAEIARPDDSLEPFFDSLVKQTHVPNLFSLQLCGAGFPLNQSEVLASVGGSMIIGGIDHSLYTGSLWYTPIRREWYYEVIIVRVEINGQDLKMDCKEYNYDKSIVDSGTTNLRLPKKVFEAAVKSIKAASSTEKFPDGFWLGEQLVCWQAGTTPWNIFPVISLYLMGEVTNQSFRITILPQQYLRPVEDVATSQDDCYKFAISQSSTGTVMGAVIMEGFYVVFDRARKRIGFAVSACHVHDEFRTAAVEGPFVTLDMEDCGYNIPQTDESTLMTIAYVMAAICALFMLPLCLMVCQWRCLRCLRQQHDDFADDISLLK

[14] = biological target: Amyloid-beta precursor protein (Homo sapiens) (UniProt P05067); experiment: Inhibition of soluble amyloid beta40 (unknown origin) aggregation at 10 uM measured after 24 hrs by ThT fluorescence based assay relative to control
[15] = biological target: Amyloid-beta precursor protein (Homo sapiens) (UniProt P05067); experiment: Inhibition of soluble amyloid beta40 (unknown origin) aggregation assessed as end time of amyloid polymerization at 10 uM measured after 24 hrs by ThT fluorescence based assay (reference value: […] min)
[16] = biological target: Amyloid-beta precursor protein (Homo sapiens) (UniProt P05067); experiment: Inhibition of amyloid beta42 (unknown origin) aggregation expressed in Escherichia coli BL21 (DE3) at 10 uM measured every 5 mins by ThT fluorescence based assay relative to control
Cholinesterase = Cholinesterase (Equus caballus, UniProt P81908)
Chain of Cholinesterase (P81908 whole entry): as the sequence (P81908 whole entry) above
Description: Inhibition of equine serum BuChE using butyrylthiocholine iodide as substrate preincubated for 5 mins followed by substrate addition and measured after 5 mins by DTNB reagent based Ellman's method

Mus musculus [17] = experiment: Cognitive enhancing activity in Albino Swiss (CD-1) mouse model of scopolamine induced cognitive dysfunction and amnesia assessed as prolongation of step-through latency in retention trail at 30 mg/kg, ip pretreated for 30 mins followed by scopolamine administration and measured after 30 mins by passive avoidance test; format: functional, organism-based; settings: time 60.0 min
GABA transporter 4 [18] = biological target: T3, GABA transporter 4 (Mus musculus, UniProt P31650); experiment: Inhibition of mouse GAT4 transfected in HEK293 cells assessed as reduction in [3H]-GABA uptake preincubated for 25 mins followed by [3H]-GABA addition and measured after 4 mins by liquid scintillation counting analysis; format: cell-based; settings: read-out: pIC50 (converted)
T3 sequence (P31650 whole entry): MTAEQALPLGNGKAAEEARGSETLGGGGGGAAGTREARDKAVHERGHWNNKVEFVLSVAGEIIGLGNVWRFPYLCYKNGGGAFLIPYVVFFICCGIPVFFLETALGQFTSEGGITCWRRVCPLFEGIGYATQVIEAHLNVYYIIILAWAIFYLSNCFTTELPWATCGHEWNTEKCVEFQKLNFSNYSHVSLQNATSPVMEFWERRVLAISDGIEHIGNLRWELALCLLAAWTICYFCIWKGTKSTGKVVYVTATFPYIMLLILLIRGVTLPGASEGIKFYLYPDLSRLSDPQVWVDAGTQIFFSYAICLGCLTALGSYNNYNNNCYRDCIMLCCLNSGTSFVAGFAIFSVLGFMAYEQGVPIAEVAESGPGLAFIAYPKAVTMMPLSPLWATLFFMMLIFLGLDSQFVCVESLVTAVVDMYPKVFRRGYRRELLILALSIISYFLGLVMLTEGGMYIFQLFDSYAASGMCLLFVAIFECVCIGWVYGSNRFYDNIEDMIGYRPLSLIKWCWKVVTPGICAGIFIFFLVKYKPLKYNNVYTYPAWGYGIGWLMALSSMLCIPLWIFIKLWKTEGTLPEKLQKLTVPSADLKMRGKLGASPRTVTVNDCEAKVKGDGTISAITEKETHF

[19] = biological target: Amyloid-beta precursor protein (Homo sapiens) (UniProt P05067); experiment: Inhibition of soluble amyloid beta40 (unknown origin) aggregation assessed as inhibition of fibril elongation by measuring fold reduction in elongation ratio at 10 uM measured after 24 hrs by ThT fluorescence based assay
[20] = Inhibition of mouse GAT3 transfected in HEK293 cells assessed as reduction in [3H]-GABA uptake preincubated for 25 mins followed by [3H]-GABA addition and measured after 4 mins by liquid scintillation counting analysis; format: cell-based; settings: HEK293; read-out: pIC50 (converted)
[21] = biological target: Amyloid-beta precursor protein (Homo sapiens) (UniProt P05067); experiment: Inhibition of soluble amyloid beta40 (unknown origin) aggregation assessed as lag time of amyloid polymerization at 10 uM measured after 24 hrs by ThT fluorescence based assay (reference value: […] min)
[22] = biological target: Sodium- and chloride-dependent GABA transporter 1 (Mus musculus) (UniProt P31648); experiment: Inhibition of NO 711 marker binding to mouse GAT1 assessed as residual activity at 100 uM by LC-ESI-MS/MS based competitive MS binding assay relative to control
Mus musculus [23] = experiment: Cognitive enhancing activity in Albino Swiss (CD-1) mouse model of scopolamine induced cognitive dysfunction and amnesia assessed as prolongation of step-through latency in acquisition phase at 30 mg/kg, ip pretreated for 30 mins followed by scopolamine administration and measured after 30 mins by passive avoidance test; format: functional, organism-based; settings: time 60.0 min
[24] = biological target: Amyloid-beta precursor protein (Homo sapiens) (UniProt P05067); experiment: Inhibition of soluble amyloid beta40 (unknown origin) aggregation assessed as fold reduction in nucleation ratio at 10 uM measured after 24 hrs by ThT fluorescence based assay
Mus musculus [25] = experiment: Cognitive enhancing activity in Albino Swiss (CD-1) mouse model of scopolamine induced cognitive dysfunction and amnesia assessed as prolongation of step-through latency in retention trail at 10 to 30 mg/kg, ip pretreated for 30 mins followed by scopolamine administration and measured after 30 mins by passive avoidance test; format: functional, organism-based; settings: dose 10-30 mg/kg, time 60.0 min
[26] = biological target: T2, Sodium- and chloride-dependent GABA transporter 1; experiment: Inhibition of NO 711 marker binding to mouse GAT1 by LC-ESI-MS/MS based competitive MS binding assay
[27] = biological target: T2, Sodium- and chloride-dependent GABA transporter 1; experiment: Inhibition of mouse GAT1 expressed in HEK293 cells assessed as reduction in [3H]-GABA uptake; format: cell-based
[28] = biological target: T4, GABA transporter 2 (Mus musculus) (UniProt P31651); experiment: Inhibition of mouse GAT2 transfected in HEK293 cells assessed as reduction in [3H]-GABA uptake by measuring residual activity at 100 uM relative to control; format: cell-based
T4 sequence (whole entry): T1 sequence (P31651 whole entry)

GABA transporter 4 [29] = biological target: T3, GABA transporter 4; experiment: Inhibition of mouse GAT4 transfected in HEK293 cells assessed as reduction in [3H]-GABA uptake; format: cell-based
HEK293 [30] = experiment: Inhibition of mouse GAT3 transfected in HEK293 cells assessed as reduction in [3H]-GABA uptake by measuring residual activity at 100 uM relative to control; format: cell-based
GABA transporter 2 [31] = biological target: T1, GABA transporter 2; experiment: Inhibition of mouse GAT2 transfected in HEK293 cells assessed as reduction in [3H]-GABA uptake; format: cell-based
[32] = Inhibition of mouse GAT3 transfected in HEK293 cells assessed as reduction in [3H]-GABA uptake; format: cell-based

CN(CCOCCn1c2ccccc2c2ccccc21)C(CCN)C(=O)NCc1ccccc1 (configuration not stated)
Activity (HepG2): Non-Toxic | K [1]: 117 M⁻¹ s⁻¹ | Activity (Mus musculus [2]): Active | Activity (Mus musculus [3]): inactive | IC50 (GABA transporter 2 [4]): 15.8 µM | K [5]: 1.34 10^-4/min | IC50 [6]: 30.9 µM | inhibition [7]: 78.9% | Activity (HEK293 [8]): Non-Toxic | inhibition [9]: Active | inhibition [10]: < 10% | Activity (Mus musculus [11]): inactive | T1/2 [12]: 1.44 h | inhibition [13]: Active | IC50 (Beta-secretase 1): 9.42 µM | inhibition [14]: 78.6% | TIME [15]: 2.09 h | inhibition [16]: 31.7% | IC50 (Cholinesterase): 0.173 µM | Activity (Mus musculus [17]): Active | IC50 (GABA transporter 4 [18]): 25.1 µM | fold change (FC) [19]: 2 | IC50 [20]: 15.1 µM | TIME [21]: 0.792 h | Activity [22]: 71%

CN(CCOCCN1c2ccccc2Sc2ccccc21)C(CCN)C(=O)NCc1ccc(Cl)cc1 (configuration not stated)
Activity (HepG2): Non-Toxic | K [1]: 74.1 M⁻¹ s⁻¹ | Activity (Mus musculus [23]): Active | IC50 (GABA transporter 2 [4]): 12.3 µM | K [5]: 4.04 10^-4/min | IC50 [6]: 9.77 µM | inhibition [7]: 98.5% | Activity (HEK293 [8]): Non-Toxic | inhibition [10]: 42% | Activity (Mus musculus [11]): Active | T1/2 [12]: 4.68 h | IC50 (Beta-secretase 1): 1.57 µM | inhibition [14]: 85.5% | TIME [15]: 6.46 h | inhibition [16]: 34.6% | fold change (FC) [24]: 11 | IC50 (Cholinesterase): 0.559 µM | IC50 (GABA transporter 4 [18]): 12 µM | fold change (FC) [19]: 2 | Activity (Mus musculus [25]): inactive | Ki [26]: 45.7 µM | IC50 [20]: 6.31 µM | TIME [21]: 2.91 h

O=C(O)C1=CN(CC/C=C/c2ccccc2-c2ccc(Cl)cc2Cl)CCC1
IC50 ([27]; read-out: IC50): 0.037 µM | Activity [28]: 73% | IC50 (GABA transporter 4 [29]): 63.1 µM | Activity (HEK293 [30]): 91%

O=C(O)C1=CN(CC/C=C/c2ccccc2-c2ccccc2)CCC1
IC50 ([27]; read-out: IC50): 0.062 µM | IC50 ([27]; read-out: pIC50 (converted)): 0.162 µM | IC50 (GABA transporter 4 [29]): 288 µM | IC50 (GABA transporter 2 [31]): 135 µM | IC50 [32]: 324 µM
